Measurements from PMC10108266, “Pharmacokinetic characteristics of golidocitinib, a highly selective JAK1 inhibitor, in healthy adult participants” (Frontiers in Immunology, 2023).
Read-outs that look alike come from different tables or passages of the source.

Assays:
[1] = Safety (TEAEs), JACKPOT2 SAD cohorts; assay type: in vivo, human; conditions: n = 4
Source text: Safety assessments included monitoring of adverse events/serious adverse events, clinical safety laboratory tests (clinical chemistry, hematology, coagulation, and urinalysis tests), 12-lead ECG, vital signs (blood pressure, pulse rate, and respiratory rate), and pulmonary function. All adverse events were coded using the Medical Dictionary for Regulatory Activities (MedDRA), version 22.0. The CTCAE 5.0 was used to define the intensity of AEs.

[2] = One-month toxicology study in rat; conditions: in vivo
JAK1 = system: JAK1; parameters: method as in PMID 32297743; conditions: ref [9]; cited from earlier work
[3] = In vitro binding to human plasma; assay type: in vitro ADME
[4] = Pooled JACKPOT2/JACKPOT3 SAD analysis of the effect of race on PK; assay type: in vivo, human; conditions: for Dose normalized AUC0-inf, GLS Mean / Dose normalized AUC0-t, GLS Mean / Dose normalized Cmax, GLS Mean: ANCOVA; for Vd/F / half-life: human, plasma, oral
Description: Assessment of inter-ethnic difference of golidocitinib PK: The primary analyses of AUC0–t, AUC0–inf, and Cmax (log-transformed dose-normalized PK parameters) were performed using an analysis of covariance (ANCOVA) model, with the ethnic group as a fixed effect and dose (log scale) as a covariate. The analysis of variance (ANOVA) model was built for the secondary PK endpoints (log-transformed CL/F, Vz/F, and t1/2) with the ethnic group as a fixed effect. The Black/Caucasian and Asian/Caucasian ratios of the geometric mean were calculated by taking the antilogarithm of the difference between group means and corresponding 90% confidence intervals (CIs) in the log scale. Other analyses are descriptive, and no formal statistical comparison is performed for pooled JACKPOT2 and JACKPOT3 data. As the study design of SAD cohorts in JACKPOT2 and JACKPOT3 studies was similar, pooled analysis was performed. The race factor is the focus potentially used for the exposure comparison. A total of 62 participants were included in the analysis (11 Caucasians, 19 Blacks and 32 Asians).

COc1nn(C)cc1Nc1nccc(-c2c[nH]c3c(NC(=O)[C@@H](C)N4CCN(C)CC4)cccc23)n1 [golidocitinib, (2R)-N-[3-[2-[(3-Methoxy-1-methyl-pyrazol-4-yl)amino]pyrimidin-4-yl]-1H-indol-7-yl]-2-(4-methylpiperazin-1-yl)propenamide]
ALT Increased ([1]; 5 mg single dose): 0 n (%) | AST Increased ([1]; 5 mg single dose): 0 n (%) | Anemia ([1]; 5 mg single dose): 1 (25.0%) n (%) | Blood and Lymphatic System Disorders ([1]; 5 mg single dose): 2 (50.0%) n (%) | Chest Discomfort ([1]; 5 mg single dose): 0 n (%) | Dyspnea ([1]; 5 mg single dose): 0 n (%) | Eosinophilia ([1]; 5 mg single dose): 2 (50.0%) n (%) | General Disorders and Administration Site Conditions ([1]; 5 mg single dose): 0 n (%) | Investigations ([1]; 5 mg single dose): 0 n (%) | N-Terminal Pro-BNP ([1]; 5 mg single dose): 0 n (%) | Nasal Congestion ([1]; 5 mg single dose): 1 (25.0%) n (%) | Neutropenia ([1]; 5 mg single dose): 0 n (%) | Oropharyngeal Pain ([1]; 5 mg single dose): 1 (25.0%) n (%) | Respiratory, Thoracic and Mediastinal Disorders ([1]; 5 mg single dose): 2 (50.0%) n (%) | Subjects with at least one TEAE ([1]; 5 mg single dose): 2 (50.0%) n (%) | Thrombocytosis ([1]; 5 mg single dose): 0 n (%) | ALT Increased ([1]; 20 mg single dose): 0 n (%) | AST Increased ([1]; 20 mg single dose): 0 n (%) | Anemia ([1]; 20 mg single dose): 0 n (%) | Blood and Lymphatic System Disorders ([1]; 20 mg single dose): 2 (50.0%) n (%) | Chest Discomfort ([1]; 20 mg single dose): 0 n (%) | Dyspnea ([1]; 20 mg single dose): 0 n (%) | Eosinophilia ([1]; 20 mg single dose): 0 n (%) | General Disorders and Administration Site Conditions ([1]; 20 mg single dose): 0 n (%) | Investigations ([1]; 20 mg single dose): 0 n (%) | N-Terminal Pro-BNP ([1]; 20 mg single dose): 0 n (%) | Nasal Congestion ([1]; 20 mg single dose): 0 n (%) | Neutropenia ([1]; 20 mg single dose): 1 (25.0%) n (%) | Oropharyngeal Pain ([1]; 20 mg single dose): 0 n (%) | Respiratory, Thoracic and Mediastinal Disorders ([1]; 20 mg single dose): 0 n (%) | Subjects with at least one TEAE ([1]; 20 mg single dose): 2 (50.0%) n (%) | Thrombocytosis ([1]; 20 mg single dose): 1 (25.0%) n (%) | ALT Increased ([1]; 50 mg single dose): 0 n (%) | AST Increased ([1]; 50 mg single dose): 0 n (%) | Anemia ([1]; 50 mg single dose): 0 n (%) | Blood and Lymphatic System Disorders ([1]; 50 mg single dose): 0 n (%) | Chest Discomfort ([1]; 50 mg single dose): 0 n (%) | Dyspnea ([1]; 50 mg single dose): 0 n (%) | Eosinophilia ([1]; 50 mg single dose): 0 n (%) | General Disorders and Administration Site Conditions ([1]; 50 mg single dose): 0 n (%) | Investigations ([1]; 50 mg single dose): 1 (25.0%) n (%) | N-Terminal Pro-BNP ([1]; 50 mg single dose): 1 (25.0%) n (%) | Nasal Congestion ([1]; 50 mg single dose): 0 n (%) | Neutropenia ([1]; 50 mg single dose): 0 n (%) | Oropharyngeal Pain ([1]; 50 mg single dose): 0 n (%) | Respiratory, Thoracic and Mediastinal Disorders ([1]; 50 mg single dose): 0 n (%) | Subjects with at least one TEAE ([1]; 50 mg single dose): 1 (25.0%) n (%) | Thrombocytosis ([1]; 50 mg single dose): 0 n (%) | ALT Increased ([1]; 100 mg single dose): 0 n (%) | AST Increased ([1]; 100 mg single dose): 0 n (%) | Anemia ([1]; 100 mg single dose): 0 n (%) | Blood and Lymphatic System Disorders ([1]; 100 mg single dose): 1 (25.0%) n (%) | Chest Discomfort ([1]; 100 mg single dose): 1 (25.0%) n (%) | Dyspnea ([1]; 100 mg single dose): 0 n (%) | Eosinophilia ([1]; 100 mg single dose): 0 n (%) | General Disorders and Administration Site Conditions ([1]; 100 mg single dose): 1 (25.0%) n (%) | Investigations ([1]; 100 mg single dose): 0 n (%) | N-Terminal Pro-BNP ([1]; 100 mg single dose): 0 n (%) | Nasal Congestion ([1]; 100 mg single dose): 0 n (%) | Neutropenia ([1]; 100 mg single dose): 0 n (%) | Oropharyngeal Pain ([1]; 100 mg single dose): 0 n (%) | Respiratory, Thoracic and Mediastinal Disorders ([1]; 100 mg single dose): 0 n (%) | Subjects with at least one TEAE ([1]; 100 mg single dose): 1 (25.0%) n (%) | Thrombocytosis ([1]; 100 mg single dose): 1 (25.0%) n (%) | ALT Increased ([1]; 150 mg single dose): 0 n (%) | AST Increased ([1]; 150 mg single dose): 0 n (%) | Anemia ([1]; 150 mg single dose): 0 n (%) | Blood and Lymphatic System Disorders ([1]; 150 mg single dose): 0 n (%) | Chest Discomfort ([1]; 150 mg single dose): 0 n (%) | Dyspnea ([1]; 150 mg single dose): 0 n (%) | Eosinophilia ([1]; 150 mg single dose): 0 n (%) | General Disorders and Administration Site Conditions ([1]; 150 mg single dose): 0 n (%) | Investigations ([1]; 150 mg single dose): 0 n (%) | N-Terminal Pro-BNP ([1]; 150 mg single dose): 0 n (%) | Nasal Congestion ([1]; 150 mg single dose): 0 n (%) | Neutropenia ([1]; 150 mg single dose): 0 n (%) | Oropharyngeal Pain ([1]; 150 mg single dose): 0 n (%) | Respiratory, Thoracic and Mediastinal Disorders ([1]; 150 mg single dose): 0 n (%) | Subjects with at least one TEAE ([1]; 150 mg single dose): 0 n (%) | Thrombocytosis ([1]; 150 mg single dose): 0 n (%) | Human equivalent dose of the NOAEL at 1 month ([2]; body surface area (BSA) conversion, read-out: Human Equivalent Dose (HED) of the NOAEL): 0.972 mg/kg | NOAEL at 1 month ([2]; most sensitive species (rat), one-month toxicology study, read-out: No Observed Adverse Effect Level (NOAEL)): 6 mg/kg | selectivity to JAK1 over other JAK family kinases (JAK1): greater than 200 folds | bound to human plasma ([3]; human plasma of Caucasian and Chinese, in vitro): ~ 63% | fraction unbound ([3]; human, plasma, read-out: free fraction in plasma): 0.373 | CL/F, Geometric Mean (CV%) ([4]; Asian, n 24, single dose): 20.07 (21.59) L/hr | Dose normalized AUC0-inf, Geometric Mean (CV%) ([4]; Asian, n 24, single dose): 49.82 (21.63) hr*ng/mL/mg | Dose normalized AUC0-t, Geometric Mean (CV%) ([4]; Asian, n 24, single dose): 48.15 (23.34) hr*ng/mL/mg | Dose normalized Cmax, Geometric Mean (CV%) ([4]; Asian, n 24, single dose): 1.70 (24.14) ng/mL/mg | Dose normalized AUC0-inf, GLS Mean ([4]; Asian, single dose): 49.76 ng·h/mL/mg | Dose normalized AUC0-t, GLS Mean ([4]; Asian, single dose): 47.50 ng·h/mL/mg | Dose normalized Cmax, GLS Mean ([4]; Asian, single dose): 1.66 ng/mL/mg | CL/F, GLS Mean ([4]; Asian, single dose, ANOVA): 20.07 L/h | CL/F, Ratio of GLS means ([4]; Asian/Caucasian): 0.88 | Dose normalized AUC0-inf, Ratio of GLS means ([4]; Asian/Caucasian): 1.2 | Dose normalized AUC0-t, Ratio of GLS means ([4]; Asian/Caucasian): 1.1 | Dose normalized Cmax, Ratio of GLS means ([4]; Asian/Caucasian): 1.4 | Vz/F, Ratio of GLS means ([4]; Asian/Caucasian): 0.76 | t1/2, Ratio of GLS means ([4]; Asian/Caucasian): 0.87 | Dose normalized AUC0-inf, Geometric Mean (CV%) ([4]; Black, n 10 (5 mg group not included), single dose): 51.54 (22.55) hr*ng/mL/mg | CL/F, Geometric Mean (CV%) ([4]; Black, n 10, single dose): 19.40 (22.55) L/hr | Dose normalized AUC0-t, Geometric Mean (CV%) ([4]; Black, n 13, single dose): 46.51 (23.98) hr*ng/mL/mg | Dose normalized Cmax, Geometric Mean (CV%) ([4]; Black, n 13, single dose): 1.12 (26.07) ng/mL/mg | Dose normalized AUC0-inf, GLS Mean ([4]; Black, single dose): 52.05 ng·h/mL/mg | Dose normalized AUC0-t, GLS Mean ([4]; Black, single dose): 47.72 ng·h/mL/mg | Dose normalized Cmax, GLS Mean ([4]; Black, single dose): 1.19 ng/mL/mg | CL/F, GLS Mean ([4]; Black, single dose, ANOVA): 19.40 L/h | CL/F, Ratio of GLS means ([4]; Black/Caucasian): 0.85 | Dose normalized AUC0-inf, Ratio of GLS means ([4]; Black/Caucasian): 1.2 | Dose normalized AUC0-t, Ratio of GLS means ([4]; Black/Caucasian): 1.1 | Dose normalized Cmax, Ratio of GLS means ([4]; Black/Caucasian): 1.0 | Vz/F, Ratio of GLS means ([4]; Black/Caucasian): 1.1 | t1/2, Ratio of GLS means ([4]; Black/Caucasian): 1.3 | Dose normalized AUC0-inf, Geometric Mean (CV%) ([4]; Caucasian, n 6 (5 mg group not included), single dose): 43.62 (23.48) hr*ng/mL/mg | CL/F, Geometric Mean (CV%) ([4]; Caucasian, n 6, single dose): 22.92 (23.48) L/hr | Dose normalized AUC0-t, Geometric Mean (CV%) ([4]; Caucasian, n 7, single dose): 42.59 (28.57) hr*ng/mL/mg | Dose normalized Cmax, Geometric Mean (CV%) ([4]; Caucasian, n 7, single dose): 1.17 (30.17) ng/mL/mg | Dose normalized AUC0-inf, GLS Mean ([4]; Caucasian, single dose): 43.13 ng·h/mL/mg | Dose normalized AUC0-t, GLS Mean ([4]; Caucasian, single dose): 42.52 ng·h/mL/mg | Dose normalized Cmax, GLS Mean ([4]; Caucasian, single dose): 1.16 ng/mL/mg | CL/F, GLS Mean ([4]; Caucasian, single dose, ANOVA): 22.92 L/h | Vd/F ([4]; Asian, n 24, single dose, read-out: Vz/F, Geometric Mean (CV%)): 1020 L | half-life ([4]; Asian, n 24, single dose, read-out: t1/2, Geometric Mean (CV%) (converted)): 35.4 h | Vd/F ([4]; Asian, single dose, ANOVA, read-out: Vz/F, GLS Mean): 1020 L | half-life ([4]; Asian, single dose, ANOVA, read-out: t1/2, GLS Mean (converted)): 35.4 h | Vd/F ([4]; Black, n 10, single dose, read-out: Vz/F, Geometric Mean (CV%)): 1420 L | half-life ([4]; Black, n 10, single dose, read-out: t1/2, Geometric Mean (CV%) (converted)): 50.9 h | Vd/F ([4]; Black, single dose, ANOVA, read-out: Vz/F, GLS Mean): 1420 L | half-life ([4]; Black, single dose, ANOVA, read-out: t1/2, GLS Mean (converted)): 50.9 h | Vd/F ([4]; Caucasian, n 6, single dose, read-out: Vz/F, Geometric Mean (CV%)): 1350 L | half-life ([4]; Caucasian, n 6, single dose, read-out: t1/2, Geometric Mean (CV%) (converted)): 40.8 h | Vd/F ([4]; Caucasian, single dose, ANOVA, read-out: Vz/F, GLS Mean): 1350 L | half-life ([4]; Caucasian, single dose, ANOVA, read-out: t1/2, GLS Mean (converted)): 40.8 h
